# How the values were obtained:
# [1] = Comparative solubilities in pH 7.2 buffer at 25°; type: physicochemical; conditions: aqueous buffer; pH 7.2 phosphate buffer, 25°
# Procedure: Comparative Solubilities in pH 7.2 Buffer at 25°
# Solubilities were determined by suspending an excess amount of the compound in approximately 0.15 molar phosphate buffer (pH 7.2) and shaking overnight in a water bath at 25° to give a saturated solution. The concentration of the compound in the filtered solution was calculated on the basis of spectrophotometric measurements, i.e. comparison of the ultraviolet absorbance at the λmax for the saturated solution with the absorbance value observed for a known concentration of the compound.
# [2] = system: guanosine monophosphate kinase and extract of HSV1-infected HeLa cells; type: biochemical; conditions: gmp kinase, 4 h
# Procedure: To the rest of the incubation mixtures were now added 0.04 units of guanosine monophosphate kinase and 20 μl of an extract of HSV1-infectedHeLa cells [The cells were infected with the virus at a multiplicity of 10 and harvested 8 hours later; they were suspended in a solution containing 0.35M KH2 PO4, pH 7.5, 0.5 mM dithiothreitol, 0.2% polyoxyethylene(9)octylphenol (Nonidet P-40), 14% glycerol at 50 mg/ml and after 30 minutes at 4° were centrifuged at […]; the supernatant liquid was the crude extract.] Incubation was continued at 30° for 4 more hours, after which samples were analyzed by HPLC and the amount of the triphosphate derivatives of each compound determined by integration of the area under the respective chromatographic peak.
# [3] = system: Herpes simplex virus type I (HSV-1), strain Schooler; assay: Treatment of Herpes simplex virus infection in mice, intraperitoneal HSV-1, subcutaneous treatment (Table II); type: in vivo, HSV-1; ICR/Ha mice; conditions: for Percent Survival: at 15 days
# [4] = system: Herpes simplex virus type I (HSV-1), strain Schooler; assay: Treatment of Herpes simplex virus infection in mice, repeat experiment (Table III); type: in vivo, HSV-1; ICR/Ha mice; conditions: for Percent Survival: at 15 days
# Procedure: Twenty gram ICR/Ha mice were injected intraperitoneally (ip) with 0.5 ml of a 10^-5 dilution of a stock preparation of Herpes simplex virus type I (HSV-1), strain Schooler. This virus challenge infected each animal with approximately 100 LD50. […] The placebo group was composed of 45 animals. All compounds were solubilized in physiological saline, pH 11.5.
# Genotoxicity = conditions: qualitative statement
# [5] = system: Herpes simplex virus type 1; assay: Tube dilution assay, viral cytopathology of HSV-1 in rabbit kidney cell cultures; conditions: Human alphaherpesvirus 1, in Oryctolagus cuniculus, read-out: Minimum Effective Concentration, Strain Schooler
# [6] = system: Herpes simplex virus type 2; assay: Tube dilution assay, viral cytopathology of HSV-2 in rabbit kidney cell cultures; conditions: Human alphaherpesvirus 2, in Oryctolagus cuniculus, read-out: Minimum Effective Concentration
# [7] = biological target: T1, guanosine monophosphate kinase from hog brain (Sus scrofa, UniProt P31006); assay: Kinetic parameters with purified guanosine monophosphate kinase; type: biochemical; conditions: for Vmax: 25°, pH 7.6
# T1 sequence (P31006 1-198): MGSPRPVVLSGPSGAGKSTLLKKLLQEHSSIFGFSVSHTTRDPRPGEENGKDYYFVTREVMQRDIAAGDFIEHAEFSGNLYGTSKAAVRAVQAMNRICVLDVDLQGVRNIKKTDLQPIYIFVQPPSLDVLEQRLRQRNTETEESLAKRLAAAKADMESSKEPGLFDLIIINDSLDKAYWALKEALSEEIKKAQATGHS
# mycoplasmal growth = assay: Inhibition of mycoplasmal growth in chickens; type: in vivo; conditions: systemic, 875 μg/bird
# HSV-1 PAA ®1 = conditions: HSV-1 PAA R1
# [8] = system: HSV-1 wild type Strain 17; assay: Drug sensitivity of HSV-1 wild type Strain 17; conditions: HSV-1 wild type Strain 17
# Recombinant 6-26 = assay: Drug sensitivity of HSV-1/HSV-2 intertypic Recombinant 6-26; conditions: Recombinant 6-26
# Recombinant 6-30 = assay: Drug sensitivity of HSV-1/HSV-2 intertypic Recombinant 6-30; conditions: Recombinant 6-30
# Recombinant 6-34 = assay: Drug sensitivity of HSV-1/HSV-2 intertypic Recombinant 6-34; conditions: Recombinant 6-34
# Recombinant 6-19 = assay: Drug sensitivity of HSV-1/HSV-2 intertypic Recombinant 6-19; conditions: Recombinant 6-19
smiles,measurement,setting,value
"Nc1nc2c(ncn2COCC(O)CO)c(=O)[nH]1 (stereo not drawn) [Compound of Formula I, 9-(2,3-Dihydroxy-1-propoxymethyl)guanine]",solubility,[1],3600 µg/mL
same,converted to the triphosphate,[2],55%
same,Avg. Survival Time,[3]; 3.1 mg/kg/day s.c.,6.3 days
same,Percent Survival,[3]; 3.1 mg/kg/day s.c.,0%
same,Avg. Survival Time,[3]; 12.5 mg/kg/day s.c.,9.0 days
same,Percent Survival,[3]; 12.5 mg/kg/day s.c.,26%
same,Avg. Survival Time,[3]; 50 mg/kg/day s.c.,11.8 days
same,Percent Survival,[3]; 50 mg/kg/day s.c.,60%
same,Avg. Survival Time,[4]; 3.1 mg/kg/day s.c.,7.2 days
same,Percent Survival,[4]; 3.1 mg/kg/day s.c.,6%
same,Avg. Survival Time,[4]; 12.5 mg/kg/day s.c.,9.8 days
same,Percent Survival,[4]; 12.5 mg/kg/day s.c.,33%
same,Avg. Survival Time,[4]; 50 mg/kg/day s.c.,10.5 days
same,Percent Survival,[4]; 50 mg/kg/day s.c.,36%
same,calculated average relative potency to acycloguanosine (95% CI),[4]; combined results of both mouse experiments,9.2
same,genotoxicity,Genotoxicity,lack of genotoxicity
same,minimal effective concentration,[5],1 to 3 µg/mL
same,minimal effective concentration,[6],3 to 6 µg/mL
Nc1nc2c(ncn2COC(CO)COP(=O)(O)O)c(=O)[nH]1 (stereo not drawn) [Compound of Formula II Monophosphate],relative efficiency as substrate (Vmax /Km) vs acycloguanosine monophosphate,[7],492 to 1
same,Vmax,[7],7.1 µg/min/mg
"Nc1nc2c(ncn2[C@H]2C[C@H](O)[C@@H](COP(=O)(O)O)O2)c(=O)[nH]1 [Deoxyguanosine monophosphate, deoxyguanosine monophosphate, reference compound]",Vmax,[7],17.2 µg/min/mg
"CCCCCCCC(=O)OCC(COC(=O)CCCCCCC)OCn1cnc2c(=O)[nH]c(N)nc21 [Example 11, 9-(1,3-Dioctanoyloxy-2-propoxymethyl)guanine]",inhibition of mycoplasmal growth,mycoplasmal growth,75%
"O=C(O)CP(=O)(O)O [PAA, phosphonoacetic acid, reference compound]",Sensitivity (S) or Resistance (R),HSV-1 PAA ®1,R
same,Sensitivity (S) or Resistance (R),HSV-2 TS6; HSV-2 TS6,S
same,sensitivity of HSV-2 Ts6,HSV-2 TS6; HSV-2 Ts6,sensitive
same,Sensitivity (S) or Resistance (R),[8],S
same,Sensitivity (S) or Resistance (R),Recombinant 6-26,S
same,Sensitivity (S) or Resistance (R),Recombinant 6-30,S
same,Sensitivity (S) or Resistance (R),Recombinant 6-34,R
same,Sensitivity (S) or Resistance (R),Recombinant 6-19,R

# Source: patent US4816447A, “Anti-viral guanine compounds” (priority 1984, dated 1989)
